# Reference: patent US8841233B2, “Herbicidal compositions comprising 4-amino-3-chloro-5-fluoro-6-(4-chloro-2-fluoro-3-methoxyphenyl) pyridine-2-carboxylic acid or a derivative thereof and 4-hydroxyphenyl-pyruvate dioxygenase (HPPD) inhibitors” (Dow Agrosciences LLC, priority 2012, dated 2014)
# What was measured:
# [1] = system: IPOHE; test: Post-emergence foliar-applied weed control, greenhouse (Example I); assay type: in vivo, Ipomoea hederacea Jacq.; conditions: 150 gai/ha
# Source text: (§1) Evaluation of Post-emergence Foliar-Applied Herbicidal Mixtures for Weed Control in Direct Seeded Rice
# (§2) Seeds or nutlets of the desired test plant species were planted in a soil matrix prepared by mixing a loam or sandy loam soil (e.g., 28.6 percent silt, 18.8 percent clay, and 52.6 percent sand, with a pH of about 5.8 and an organic matter content of about 1.8 percent) and calcareous grit in an 80 to 20 ratio. The soil matrix was contained in plastic pots with a volume of 1 quart and a surface area of 83.6 square centimeters (cm^2). When required to ensure good germination and healthy plants, a fungicide treatment and/or other chemical or physical treatment was applied. The plants were grown for 8-22 days in a greenhouse with an approximate 14 h photoperiod which was maintained at about 29° C. during the day and 26° C. during the night. Nutrients (Peters Excel® 15-5-15 5-Ca 2-Mg and iron chelate) were applied in the irrigation solution as needed and water was added on a regular basis. Supplemental lighting was provided with overhead metal halide 1000-Watt lamps as necessary. The plants were employed for testing when they reached the first through fourth true leaf stage.
# (§3) Treatments consisted of the acid or esters of 4-amino-3-chloro-5-fluoro-6-(4-chloro-2-fluoro-3-methoxy-phenyl)pyridine-2-carboxylic acid (Compound A), each formulated as an SC (suspension concentrate), and various herbicidal components alone and in combination. Forms of Compound A were applied on an acid equivalent basis.
# (§4) Other herbicidal components were applied on an active ingredient basis and included 4-hydroxyphenyl pyruvate dioxygenase (HPPD)-inhibiting herbicides mesotrione formulated as Callisto®, sulcotrione formulated as Mikado®, pyrazolynate formulated as Sunbird® 10% GR, and benzobicyclon formulated as Benzobicyclon 3.5%.
# (§5) Treatment requirements were calculated based upon the rates being tested, the concentration of active ingredient or acid equivalent in the formulation, and a 12 mL application volume at a rate of 187 L/ha.
# (§6) For treatments comprised of formulated compounds, measured amounts of compounds were placed individually in 25 mL glass vials and diluted in a volume of 1.25% (v/v) Agri-Dex® crop oil concentrated to obtain 12× stock solutions. […] Application solutions were prepared by adding an appropriate amount of each stock solution (e.g., 1 mL) and diluted to the appropriate final concentrations with the addition of 10 mL of an aqueous mixture of 1.25% (v/v) crop oil concentrate so that the final spray solutions contained 1.25+/−0.05% (v/v) crop oil concentrate.
# (§7) For treatments comprised of formulated and technical compounds, weighed amounts of the technical materials were placed individually in 25 mL glass vials and dissolved in a volume of 97:3 v/v acetone/DMSO to obtain 12× stock solutions, and measured amounts of the formulated compounds were placed individually in 25 mL glass vials and diluted in a volume of 1.5% (v/v) crop oil concentrate or water to obtain 12× stock solutions. […] Application solutions were prepared by adding an appropriate amount of each stock solution (e.g., 1 mL) and diluted to the appropriate final concentrations with the addition of an appropriate amount of an aqueous mixture of 1.5% (v/v) crop oil concentrate so that the final spray solutions contained 1.25% (v/v) crop oil concentrate. As required, additional water and/or 97:3 v/v acetone/DMSO was added to individual application solutions so that the final acetone and DMSO concentrations of the application solutions being compared were 8.1% and 0.25%, respectively.
# (§8) All stock solutions and applications solutions were visually inspected for compound compatibility prior to application. Spray solutions were applied to the plant material with an overhead Mandel track sprayer equipped with a 8002E nozzles calibrated to deliver 187 L/ha over an application area of 0.503 m^2 at a spray height of 18 to 20 inches (46 to 50 cm) above average plant canopy height. […]
# [2] = system: ECHCG; test: as above; assay type: in vivo, Echinochloa crusgalli (L.) Beauv.
# Source text: as §1, §2, §3, §4, §5, §6, §7, §8
# [3] = system: LEFCH; test: as above; assay type: in vivo, Leptochloa chinensis (L.) Nees; conditions: 150 gai/ha
# Source text: as §1
# as §2, with “stage. […]” for “stage.”
# as §5
# For treatments comprised of formulated compounds, measured amounts of compounds were placed individually in 25 mL glass vials and diluted in a volume of 1.25% (v/v) Agri-Dex® crop oil concentrated to obtain 12× stock solutions. […]
# For treatments comprised of formulated and technical compounds, weighed amounts of the technical materials were placed individually in 25 mL glass vials and dissolved in a volume of 97:3 v/v acetone/DMSO to obtain 12× stock solutions, and measured amounts of the formulated compounds were placed individually in 25 mL glass vials and diluted in a volume of 1.5% (v/v) crop oil concentrate or water to obtain 12× stock solutions. […]
# [4] = system: ECHCG; test: In-water applied weed control, transplanted paddy rice, greenhouse (Example II); assay type: in vivo, Echinochloa crusgalli (L.) Beauv.
# Procedure: (§9) Evaluation of in-Water Applied Herbicidal Mixtures for Weed Control in Transplanted Paddy Rice
# (§10) Weed seeds or nutlets of the desired test plant species were planted in puddled soil (mud) prepared by mixing a shredded, non-sterilized mineral soil (50.5 percent silt, 25.5 percent clay, and 24 percent sand, with a pH of about 7.6 and an organic matter content of about 2.9 percent) and water at a 1:1 volumetric ratio. The prepared mud was dispensed in 365 mL aliquots into 16-ounce (oz.) non-perforated plastic pots with a surface area of 86.59 square centimeters (cm^2) leaving a headspace of 3 centimeters (cm) in each pot. Mud was allowed to dry overnight prior to planting or transplanting. Rice seeds were planted in Sun Gro MetroMix® 306 planting mixture, which typically has a pH of 6.0 to 6.8 and an organic matter content of about 30 percent, in plastic plug trays. Seedlings at the second or third leaf stage of growth were transplanted into 840 mL of mud contained in 32-oz. non-perforated plastic pots with a surface area of 86.59 cm^2 4 days prior to herbicide application. The paddy was created by filling the headspace of the pots with 2.5 to 3 cm of water. When required to ensure good germination and healthy plants, a fungicide treatment and/or other chemical or physical treatment was applied. The plants were grown for 4-22 days in a greenhouse with an approximate 14 h photoperiod which was maintained at about 29′C during the day and 26° C. during the night. Nutrients were added as Osmocote® (19:6:12, N:P:K+ minor nutrients) at 2 g per 16-oz. pot and 4 g per 32-oz. pot. Water was added on a regular basis to maintain the paddy flood, and supplemental lighting was provided with overhead metal halide 1000-Watt lamps as necessary. The plants were employed for testing when they reached the first through fourth true leaf stage.
# as §3, with “(compound A)” for “(Compound A),”, “concentrate)” for “concentrate),”, “compound” for “Compound”
# as §4, with “3.5% or technical material.” for “3.5%.”
# (§11) Treatment requirements for each compound or herbicidal component were calculated based upon the rates being tested, the concentration of active ingredient or acid equivalent in the formulation, an application volume of 2 mL per component per pot, and an application area of 86.59 cm^2 per pot.
# (§12) For formulated compounds, a measured amount was placed in an individual 100 or 200 mL glass vial and was dissolved in a volume of 1.25% (v/v) Agri-Dex® crop oil concentrate to obtain application solutions.
# (§13) For technical grade compounds, a weighed amount was placed in an individual 100 to 200 mL glass vial and was dissolved in a volume of acetone to obtain concentrated stock solutions. […] The concentrated stock solutions obtained were diluted with an equivalent volume of an aqueous mixture containing 2.5% (v/v) crop oil concentrate so that the final application solutions contained 1.25% (v/v) crop oil concentrate.
# (§14) Applications were made by injecting with a pipetter appropriate amounts of the application solutions, individually and sequentially, into the aqueous layer of the paddy. Control plants were treated in the same manner with the solvent blank. Applications were made so that all treated plant material received the same concentrations of acetone and crop oil concentrate.
# (§15) The treated plants and control plants were placed in a greenhouse as described above and water was added as needed to maintain a paddy flood. […]
# [5] = system: ECHOR; test: as above; assay type: in vivo, Echinochloa oryzoides (Ard.) Fritsch
# Procedure: as §9, §10
# as §3, with “(compound A)” for “(Compound A),”, “concentrate)” for “concentrate),”, “compound” for “Compound”
# as §4, with “3.5% or technical material.” for “3.5%.”
# as §11, §12, §13, §14, §15
# [6] = system: FIMMI; test: as above; assay type: in vivo, Fimbristylis miliacea (L.) Vahl
# Procedure: as §9, §10
# as §3, with “(compound A)” for “(Compound A),”, “concentrate)” for “concentrate),”, “compound” for “Compound”
# as §4, with “3.5% or technical material.” for “3.5%.”
# as §11, §12, §13, §14, §15
# [7] = system: SCPMA; test: as above; assay type: in vivo; conditions: 37.5 gai/ha
# Procedure: as §9, §10
# as §3, with “(compound A)” for “(Compound A),”, “concentrate)” for “concentrate),”, “compound” for “Compound”
# as §4, with “3.5% or technical material.” for “3.5%.”
# as §11, §12, §13, §14, §15
# [8] = system: ECHCO; test: as above; assay type: in vivo, Echinochloa colona (L.) Link
# Procedure: as §9, §10
# as §3, with “(compound A)” for “(Compound A),”, “concentrate)” for “concentrate),”, “compound” for “Compound”, “basis. […]” for “basis.”
# as §11
# (§16) For formulated compounds, a measured amount was placed in an individual 100 or 200 mL glass vial and was dissolved in a volume of 1.25% (v/v) Agri-Dex® crop oil concentrate to obtain application solutions. […]
# [9] = system: LEFCH; test: as above; assay type: in vivo, Leptochloa chinensis (L.) Nees
# Procedure: as §9, §10
# as §3, with “(compound A)” for “(Compound A),”, “concentrate)” for “concentrate),”, “compound” for “Compound”
# as §4, with “3.5% or technical material.” for “3.5%.”
# as §11, §12, §13, §14, §15
# [10] = system: CYPRO; test: as above; assay type: in vivo, Cyperus rotundus L.
# Procedure: as §9, §10
# as §3, with “(compound A)” for “(Compound A),”, “concentrate)” for “concentrate),”, “compound” for “Compound”
# as §4, with “3.5% or technical material.” for “3.5%.”
# as §11, §12, §13, §14, §15
# [11] = system: SCPJU; test: as above; assay type: in vivo, Schoenoplectus juncoides (Roxb.) Palla
# Procedure: as §9
# as §10, with “Water was added on a regular basis to maintain the paddy flood, and supplemental lighting was provided with overhead metal halide 1000-Watt lamps as necessary. The plants were employed for testing when they reached the first through fourth true leaf stage.” left out
# as §11, §16
structure (smiles),measurement,setting,value
"Cc1ccc(S(=O)(=O)Oc2c(C(=O)c3ccc(Cl)cc3Cl)c(C)nn2C)cc1 [Pyrazolynate, (2,4-dichlorophenyl)[1,3-dimethyl-5-[[(4-methylphenyl)sulfonyl]oxy]-1H-pyrazol-4-yl]methanone, reference compound]",Visual Weed Control (%) - 21 DAA IPOHE Obs,[1],10%
same,Visual Weed Control (%) - 22 DAA ECHCG Obs,[2]; 37.5 gai/ha,0%
same,Visual Weed Control (%) - 22 DAA ECHCG Obs,[2]; 75 gai/ha,0%
same,Visual Weed Control (%) - 21 DAA ECHCG Obs,[2]; 150 gai/ha,0%
same,Visual Weed Control (%) - 21 DAA LEFCH Obs,[3],5%
same,Visual Weed Control (%) - 21 DAA ECHCG Obs,[4]; 37.5 gai/ha,0%
same,Visual Weed Control (%) - 21 DAA ECHCG Obs,[4]; 75 gai/ha,0%
same,Visual Weed Control (%) - 21 DAA ECHOR Obs,[5]; 37.5 gai/ha,0%
same,Visual Weed Control (%) - 21 DAA ECHOR Obs,[5]; 75 gai/ha,8%
same,Visual Weed Control (%) - 21 DAA ECHOR Obs,[5]; 150 gai/ha,13%
same,Visual Weed Control (%) - 21 DAA FIMMI Obs,[6]; 37.5 gai/ha,0%
same,Visual Weed Control (%) - 21 DAA FIMMI Obs,[6]; 75 gai/ha,0%
same,Visual Weed Control (%) - 21 DAA SCPMA Obs,[7],0%
same,Visual Weed Control (%) - 21 DAA ECHCO Obs,[8]; 37.5 gai/ha,0%
same,Visual Weed Control (%) - 21 DAA ECHCO Obs,[8]; 75 gai/ha,0%
same,Visual Weed Control (%) - 21 DAA LEFCH Obs,[9]; 37.5 gai/ha,0%
same,Visual Weed Control (%) - 21 DAA LEFCH Obs,[9]; 75 gai/ha,50%
same,Visual Weed Control (%) - 21 DAA CYPRO Obs,[10]; 37.5 gai/ha,0%
same,Visual Weed Control (%) - 21 DAA CYPRO Obs,[10]; 75 gai/ha,0%
same,Visual Weed Control (%) - 21 DAA SCPJU Obs,[11]; 37.5 gai/ha,0%
same,Visual Weed Control (%) - 21 DAA SCPJU Obs,[11]; 75 gai/ha,0%
